Reference: patent US20260015436A1, “ANTIBODIES FOR CHELATED RADIONUCLIDES” (Hoffmann-La Roche Inc., priority 2018, published 2026)

System: BxPC3 tumors
Test: Protocol 103: efficacy of CEA-PRIT, s.c. BxPC3 tumors
Format: in vivo, SCID mice
Conditions: result in words
Protocol: Step 1: Administration of a BsAb (i.v. or i.p.): The BsAb used in the studies binds Pb-DOTAM with high affinity and targets the tumor e.g. via CEA.
Step 2: Administration of CA (i.v. or i.p.): To allow efficient tumor accumulation of ^212Pb-DOTAM, circulating BsAb needs to be neutralized in the blood using a CA that blocks ^212Pb-DOTAM binding to unbound BsAb, without penetrating into the tumor and consequently blocking the pretargeted sites. The CA is administered once the BsAb has accumulated to a sufficient degree in the tumor, generally after 4-10 days. […]
The body weight (BW) of the study animals was measured at least 3 times per week, with additional measurements as needed depending on the health status. […]
where d indicates treatment day and 0 the baseline value. […] Tumor regression (TR) was calculated according to: […]
This study assessed the efficacy of CEA-PRIT using the CEA-DOTAM BsAb for treatment of s.c. BxPC3 tumors in mice. The therapy was administered either as a single treatment with 10 or 30 μCi of ^212Pb-DOTAM, or in three repeated cycles for each of the two radioactivity levels. […] Biodistributions were performed after the first and second cycle to confirm ^212Pb-DOTAM targeting and clearance, and the treatment efficacy was assessed in terms of TGI, TR, and survival. […]

NC(=O)CN1CCN(CC(N)=O)CCN(CC(N)=O)CCN(CC(N)=O)CC1.[212Pb+2] [^212Pb-DOTAM]
radiation-induced toxicity / tolerability (10 μCi): safe radioactivity level | radiation-induced toxicity / tolerability (30 μCi): approaching the maximum tolerated activity
